In ChEMBL document CHEMBL1157695, “Identification of a novel ligand binding motif in the transthyretin channel” (Bioorg Med Chem, 2010):
pKd: −log10 of the molar value. Calls of active or inactive are those of the source. The calls are words filed in the database; no cut-off is given here.

Tests used:
[1] = target: Transthyretin (Homo sapiens, UniProt P02766, V50M); assay: Binding affinity to human recombinant TTR V30M mutant denominated hormone binding site expressed in Escherichia coli by FRET analysis
[2] = Binding affinity to human recombinant TTR T119M mutant denominated hormone binding site expressed in Escherichia coli by FRET analysis
[3] = target: Transthyretin (Homo sapiens) (UniProt P02766); assay: Binding affinity to wild type human TTR denominated hormone binding site expressed in Escherichia coli at 100 nM by fluorescence anisotropy
[4] = tested on: Transthyretin (Homo sapiens), P02766 [V50M]; assay: Binding affinity to human recombinant TTR V30M mutant denominated hormone binding site expressed in Escherichia coli at 100 nM by fluorescence anisotropy
[5] = species: Homo sapiens; assay: Binding affinity to human recombinant TTR T119M mutant denominated hormone binding site expressed in Escherichia coli at 100 nM by fluorescence anisotropy
[6] = target: Transthyretin (Homo sapiens) (UniProt P02766); assay: Inhibition of wild type human TTR aggregation expressed in Escherichia coli assessed as fibril formation at 20 uM after 72 hrs relative by spectrofluorimetry; parameters: scale not given: the % may be the effect or the level left
[7] = Binding affinity to human recombinant TTR T119M mutant denominated hormone binding site expressed in Escherichia coli assessed as dissociation constant for first ligand binding event by isothermal direct titrimetric assay
[8] = Binding affinity to human recombinant TTR T119M mutant denominated hormone binding site expressed in Escherichia coli assessed as dissociation constant for second ligand binding event by isothermal direct titrimetric assay
[9] = Binding affinity to human recombinant TTR T119M mutant denominated hormone binding site expressed in Escherichia coli by isothermal direct titrimetric assay
[10] = target: Transthyretin (Homo sapiens) (UniProt P02766); assay: Binding affinity to wild type human TTR denominated hormone binding site expressed in Escherichia coli at 10 uM by fluorescence anisotropy
[11] = tested on: Transthyretin (Homo sapiens), P02766 [V50M]; assay: Binding affinity to human recombinant TTR V30M mutant denominated hormone binding site expressed in Escherichia coli at 10 uM by fluorescence anisotropy
[12] = species: Homo sapiens; assay: Binding affinity to human recombinant TTR T119M mutant denominated hormone binding site expressed in Escherichia coli at 10 uM by fluorescence anisotropy

pKd [1] | Activity [3] | Activity [4] | Activity [5] | Activity [6] [%] | Activity [10] | Activity [11] | Activity [12] | Structure (SMILES) | pKd [2] | pKd [7] | pKd [8] | pKd [9]
4.07 | Active | Active | Active | 100 |  |  |  | Nc1cccc2c(S(=O)(=O)O)cccc12 | 4.03 |  |  | 
 |  |  |  | 33 |  |  |  | O=C(O)Cc1ccccc1Nc1c(Cl)cccc1Cl |  |  |  | 
 |  |  |  | 44 | Active | Active | Active | O=S(=O)(O)c1cccc2cccc(Nc3ccccc3)c12 |  | 5.49 | 5.17 | 5.35
